Data on 1 substance can be found in publication PMC6643297 (Cell metabolism, 2018).

The IC50 is the concentration at which inhibition is half-maximal. A lower IC50 goes with higher potency.

In experiment [1] the target is ACC1 (acetyl-CoA carboxylase 1) (Homo sapiens, UniProt Q13085). Put plainly: ACC1 enzyme inhibition assay. It counts as biochemical.
Experiment [2] deals with ACC2 (acetyl-CoA carboxylase 2) (Homo sapiens, UniProt O00763). Put plainly: ACC2 enzyme inhibition assay. Format: biochemical.
Sequence of ACC2 (acetyl-CoA carboxylase 2) (O00763 whole entry): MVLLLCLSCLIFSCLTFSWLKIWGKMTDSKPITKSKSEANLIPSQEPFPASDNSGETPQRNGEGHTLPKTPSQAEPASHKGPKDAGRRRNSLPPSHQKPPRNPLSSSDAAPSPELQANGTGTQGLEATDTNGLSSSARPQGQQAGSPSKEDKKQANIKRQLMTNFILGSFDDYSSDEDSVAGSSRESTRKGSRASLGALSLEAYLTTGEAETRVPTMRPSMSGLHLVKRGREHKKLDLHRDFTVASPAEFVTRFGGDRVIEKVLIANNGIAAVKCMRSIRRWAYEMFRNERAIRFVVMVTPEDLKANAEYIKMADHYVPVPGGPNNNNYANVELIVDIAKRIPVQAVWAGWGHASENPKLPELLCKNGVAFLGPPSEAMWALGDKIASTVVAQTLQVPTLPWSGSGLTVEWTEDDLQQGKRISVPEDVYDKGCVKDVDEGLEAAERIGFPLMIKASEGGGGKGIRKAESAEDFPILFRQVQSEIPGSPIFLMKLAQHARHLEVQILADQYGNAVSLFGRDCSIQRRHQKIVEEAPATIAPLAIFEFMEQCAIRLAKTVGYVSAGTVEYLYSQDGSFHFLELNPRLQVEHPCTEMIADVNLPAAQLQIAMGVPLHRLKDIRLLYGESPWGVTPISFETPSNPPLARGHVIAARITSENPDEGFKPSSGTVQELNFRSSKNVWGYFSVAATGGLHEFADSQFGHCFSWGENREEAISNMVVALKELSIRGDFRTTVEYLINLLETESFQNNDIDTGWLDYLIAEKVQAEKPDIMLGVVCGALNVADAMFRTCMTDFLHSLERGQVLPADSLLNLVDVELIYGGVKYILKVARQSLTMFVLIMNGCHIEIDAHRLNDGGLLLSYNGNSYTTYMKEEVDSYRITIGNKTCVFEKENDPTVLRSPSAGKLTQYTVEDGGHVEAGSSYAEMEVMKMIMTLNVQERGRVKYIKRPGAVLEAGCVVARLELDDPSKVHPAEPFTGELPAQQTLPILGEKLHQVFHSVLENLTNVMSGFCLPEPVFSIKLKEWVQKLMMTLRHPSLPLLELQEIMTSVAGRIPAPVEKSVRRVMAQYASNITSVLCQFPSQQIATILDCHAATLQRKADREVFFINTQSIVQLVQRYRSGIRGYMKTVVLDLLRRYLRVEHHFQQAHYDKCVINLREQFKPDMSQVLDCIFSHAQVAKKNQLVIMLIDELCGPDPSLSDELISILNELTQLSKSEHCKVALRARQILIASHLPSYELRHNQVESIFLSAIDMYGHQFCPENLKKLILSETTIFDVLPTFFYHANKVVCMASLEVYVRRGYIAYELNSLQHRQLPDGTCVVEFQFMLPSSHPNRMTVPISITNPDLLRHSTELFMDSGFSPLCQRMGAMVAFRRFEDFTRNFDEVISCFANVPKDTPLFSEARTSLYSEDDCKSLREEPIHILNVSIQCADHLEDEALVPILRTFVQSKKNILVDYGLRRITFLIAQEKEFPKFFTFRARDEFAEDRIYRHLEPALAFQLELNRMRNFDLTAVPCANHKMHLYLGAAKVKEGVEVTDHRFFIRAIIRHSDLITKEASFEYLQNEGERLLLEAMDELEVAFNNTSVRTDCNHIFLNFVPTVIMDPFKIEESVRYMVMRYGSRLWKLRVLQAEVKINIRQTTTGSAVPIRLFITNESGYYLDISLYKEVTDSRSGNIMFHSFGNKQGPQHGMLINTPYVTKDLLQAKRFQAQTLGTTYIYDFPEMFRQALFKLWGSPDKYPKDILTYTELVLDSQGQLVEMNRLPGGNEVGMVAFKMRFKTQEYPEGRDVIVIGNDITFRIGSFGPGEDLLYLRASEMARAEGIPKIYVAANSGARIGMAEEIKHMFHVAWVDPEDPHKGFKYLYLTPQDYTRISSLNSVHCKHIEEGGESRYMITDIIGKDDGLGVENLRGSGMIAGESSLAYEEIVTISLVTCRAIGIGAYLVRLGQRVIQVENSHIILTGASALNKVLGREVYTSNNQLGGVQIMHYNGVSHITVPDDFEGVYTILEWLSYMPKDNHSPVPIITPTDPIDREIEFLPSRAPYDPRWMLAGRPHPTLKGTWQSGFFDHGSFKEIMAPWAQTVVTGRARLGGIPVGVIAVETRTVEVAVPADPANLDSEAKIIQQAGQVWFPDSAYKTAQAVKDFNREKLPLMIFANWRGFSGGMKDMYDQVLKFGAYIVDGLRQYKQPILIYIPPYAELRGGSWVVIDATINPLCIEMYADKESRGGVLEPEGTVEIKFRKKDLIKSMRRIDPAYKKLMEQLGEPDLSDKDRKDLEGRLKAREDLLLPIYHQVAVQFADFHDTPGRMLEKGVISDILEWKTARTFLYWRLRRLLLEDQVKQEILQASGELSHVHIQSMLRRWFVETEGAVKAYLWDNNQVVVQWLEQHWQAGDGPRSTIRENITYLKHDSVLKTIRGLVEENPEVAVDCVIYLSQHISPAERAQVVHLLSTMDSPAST

As to ND-654, the IC50 in experiment [1] came to 3 nM; in experiment [2] it was 8 nM.
